Like-named read-outs stand apart in the source and are kept apart here.
Legend:
[1] = molecular target: T1, Gastrin receptor (gastric glands) (Cavia porcellus, UniProt H0VZC5); assay: Gastrin Receptor Binding in Guinea Pig Gastric Glands; parameters: species or system guinea pig (male Hartley); details: 25° C., 30 minutes
T1 construct: The washed guinea pig gastric glands prepared as above were resuspended; from tissue; host or cells: guinea pig gastric mucosal glands (male Hartley)
T1 sequence (H0VZC5 1-426): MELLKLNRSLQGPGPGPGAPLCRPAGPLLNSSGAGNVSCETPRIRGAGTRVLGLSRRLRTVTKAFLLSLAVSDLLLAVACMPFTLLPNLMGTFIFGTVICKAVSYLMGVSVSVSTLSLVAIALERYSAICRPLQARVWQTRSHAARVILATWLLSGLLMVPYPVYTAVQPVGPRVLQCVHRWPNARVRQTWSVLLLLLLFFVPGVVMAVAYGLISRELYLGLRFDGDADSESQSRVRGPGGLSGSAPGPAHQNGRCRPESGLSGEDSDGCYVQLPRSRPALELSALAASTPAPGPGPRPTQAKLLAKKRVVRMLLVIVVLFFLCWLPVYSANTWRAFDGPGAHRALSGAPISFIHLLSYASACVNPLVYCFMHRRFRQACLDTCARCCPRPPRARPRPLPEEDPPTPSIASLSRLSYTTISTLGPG

[2] = molecular target: T2, CCK receptor (brain, cerebral cortex) (Cavia porcellus, UniProt H0VZC5); assay: biochemical; assay type: binding, Male Hartley guinea pigs; details: guinea pig cerebral cortex, ^125 I-CCK-33, 25° C., 2 hours
T2 construct: Cerebral cortex was dissected and used as a receptor source; from tissue; host or cells: guinea pig cerebral cortex membranes (male Hartley)
T2 sequence (H0VZC5 1-426): T1 sequence (H0VZC5 1-426)
Method: 2. CCK Recepto Binding (Brain)
CCK-33 was radiolabeled and the binding was Performed according to the description for the Pancreas method with modifications according to Saito et al., J. Neurochem.
Cerebral cortex was dissected and used as a receptor source. Each gram of fresh guinea pig brain tissue was homogenized in 10 ml of Tris/Trizma buffer with a Brinkman polytron PT-10. The homogenates were centrifuged at 42,000 g for 15 minutes. Pellets were resuspended in Tris Buffer, centrifuged as above and resuspended in 200 volumes of binding assay buffer (10 mM N-2-hydroxyethyl-piperazine-N'-2-ethane sulfonic acid (HEPES), 5 mM MgCl2, 0.25 mg/ml bacitracin, 1 mM ethylene glycol-bis-(β-aminoethylether-N,N'-tetraacetic acid) (EGTA), and 0.4% bovine serum albumin (BSA)). […] All assays were run in duplicate or triplicate. The reaction mixtures were incubated at 25° C. for 2 hours and centrifuged in a Beckman Microfuge (4 minutes) immediately after adding 1 ml of ice-cold incubation buffer. The supernatant was aspirated and discarded, pellets were counted with a Beckman gamma 5000.

[3] = IC50 ^125 I-Gastrin Gastric Glands
[4] = ^125 I-gastrin, read-out: IC50 ^125 I-Gastrin Gastric Glands
[5] = read-out: IC50 ^125 I-CCK Brain

SMILES | IC50 [1, 3] [µM] | IC50 ([2]; IC50 ^125 I-CCK Brain) [µM] | IC50 [1, 4] [µM] | IC50 [2, 5] [µM]
O=C1Nc2ccccc2C(c2ccccc2F)=NC1CNCC1N=C(c2ccccc2F)c2ccccc2NC1=O (racemic) [Example 69, 1,3-Dihydro-3'-(RS)-[3'-(RS)-(1,3-dihydro-5-(2'-fluorophenyl)-2H-1,4-benzodiazepin-2-one)-3-yl]methylaminomethyl-5-(2'-fluorophenyl)-2H-1,4-benzodiazepin-2-one] | 350 | > 100 |  | 
CCN(CC)C(=O)C(C)N1C(=O)C(NC(=O)Nc2ccc(Cl)cc2)N=C(c2ccccc2)c2ccccc21 (single isomer, unassigned) [Example 249, 3-((((4-Chlorophenyl)amino)carbonyl)amino)-N,N,-diethyl-2,3-dihydro-alpha-methyl-2-oxo-5-phenyl-1H-1,4-benzodiazepine-1-acetamide] |  |  | 0.012 | 0.022
COc1ccc(C(=O)NC2N=C(c3ccccc3F)c3ccccc3NC2=O)cc1OC (racemic) [Example 153, 1,3-Dihydro-3(RS)-(3,4-dimethoxybenzoylamino)-5-(2-fluorophenyl)-2H-1,4-benzodiazepin-2-one] | > 40 | > 40 |  | 
CN1C(=O)[C@H](N)N=C(c2ccccc2)c2ccccc21 [Example 85b, 3(R)-(+)-3-amino-1,3-dihydro-1-methyl-5-phenyl-2H-1,4-benzodiazepin-2-one] | > 100 | > 100 |  | 
O=C(NC1N=C(c2ccccc2F)c2ccccc2NC1=O)c1cc2cc(O)ccc2[nH]1 (racemic) [Example 122, 1,3-Dihydro-3-(RS)-(5-hydroxy-2-indolylcarbonyl)amino-5-(2-fluorophenyl)-2H-1,4-benzodiazepin-2-one] | 29 | 16 |  | 
CC(C)(C)OC(=O)N[C@@H](Cc1ccccc1)C(=O)NC1N=C(c2ccccc2)c2ccccc2NC1=O (mixture of isomers) [Example 82, 3(RS)-(2(S)-tert-Butoxycarbonylamino-3-phenylpropanoyl-amino)-1,3-dihydro-5-phenyl-2H-1,4-benzodiazepin-2-one] |  | 12 | > 100 | 
O=C(NCC1N=C(c2ccccc2F)c2ccccc2NC1=O)c1cc2ccccc2[nH]1 (racemic) [Example 68, 1,3-dihydro-5-(2-fluorophenyl)-3(RS)-(2-indolecarbonylaminomethyl)-2H-1,4-benzodiazepin-2-one] | > 100 | 30 |  | 
CCCCCc1ccc(C(=O)NC2N=C(c3ccccc3)c3ccccc3NC2=O)cc1 (racemic) [Example 165, 1,3-Dihydro-3(RS)-(4-n-pentylbenzoylamino)-5-phenyl-2H-1,4-benzodiazepin-2-one] | > 100 | 8 |  | 
N[C@@H](Cc1ccccc1)C(=O)NC1N=C(c2ccccc2)c2ccccc2NC1=O (single isomer, unassigned) [Example 186] |  |  | > 100 | > 100
CN(C(=O)c1cc2ccccc2[nH]1)C1N=C(c2ccccc2)c2ccccc2NC1=O (racemic) [Example 119, 3-(RS)-[N-(2-indolecarbonyl)-N-methylamino]-1,3-dihydro-5-phenyl-2H-1,4-benzodiazepin-2-one] | > 10 | 33 |  | 
COc1ccc2[nH]c(C(=O)NC3N=C(c4ccccc4F)c4ccccc4NC3=O)cc2c1 (racemic) [Example 126, 1,3-Dihydro-3-(RS)-(5-methoxyindole-2-carbonylamino)-5-(2-fluorophenyl)-2H-1,4-benzodiazepin-2-one] | > 10 | 29 |  | 
CN1C(=O)[C@H](NC(=O)c2ccccc2Br)N=C(c2ccccc2F)c2ccccc21 [Example 171, 3(R)-(+)-3-(2-Bromobenzoylamino)-1,3-dihydro-5-(2-fluorophenyl)-1-methyl-2H-1,4-benzodiazepin-2-one] |  | 5.6 | 5.8 | 
O=C(O)CN1C(=O)C(NC(=O)c2cc3ccccc3[nH]2)N=C(c2ccccc2F)c2ccccc21 (racemic) [Example 113, 1-Carboxymethyl-1,3-dihydro-5-(2-fluorophenyl)-3(RS)-(2-indolecarbonylamino)-2H-1,4-benzodiazepin-2-one] | 0.39 | 5.6 |  | 
O=C(NC1N=C(c2ccccc2)c2ccccc2NC1=O)c1ccc(-c2ccccc2)cc1 (racemic) [Example 164, 1,3-Dihydro-5-phenyl-3(RS)-(4-phenylbenzoylamino)-2H-1,4-benzodiazepin-2-one] | > 100 | 18 |  | 
O=C(NCC1N=C(c2ccccc2F)c2ccccc2NC1=O)c1ccsc1 (racemic) [Example 67, 1,3-Dihydro-5-(2'-fluorophenyl)-3(RS)-(3-thiophene-carbonyl)aminomethyl-2H-1,4-benzodiazepin-2-one] | 47 | 100 |  | 
O=C(NCC1N=C(c2ccccc2F)c2ccccc2NC1=O)OCc1ccccc1 (racemic) [Example 66, 1,3-Dihydro-5-(2'-fluorophenyl)-3(RS)-(benzyloxycarbonyl)aminomethyl-2H-1,4-benzodiazepin-2-one] | 7.4 | 100 |  | 
CC(C)(C)c1ccc(C(=O)NC2N=C(c3ccccc3)c3ccccc3NC2=O)cc1 (racemic) [Example 146, 1,3-Dihydro-3-(RS)-(4'-tert-butylbenzoylamino)-5-phenyl-2H-1,4-benzodiazepin-2-one] | 40 | 100 |  | 
O=C1Nc2ccccc2C(c2ccccc2)=NC1NCCc1c[nH]c2ccccc12 (racemic) [Example 74, 1,3-Dihydro-3(RS)-[2-(3-indolyl)ethyl]amino-5-phenyl-2H-1,4-benzodiazepin-2-one] | > 100 | 100 |  | 
O=C(NC1N=C(c2ccccc2F)c2ccccc2NC1=O)c1cc2cc(Br)ccc2[nH]1 (racemic) [Example 120, 1,3-Dihydro-3-(RS)-(5-Bromoindole-2-carbonylamino)-5-(2-fluorophenyl)-2H-1,4-benzodiazepin-2-one] | > 10 | 50 |  | 
O=C(NC1N=C(c2ccccc2)c2ccccc2NC1=O)c1cccc(Cl)c1 (racemic) [Example 140, 3-(RS)-(m-Chlorobenzoylamino)-1,3-dihydro-5-phenyl-2H-1,4-benzodiazepin-2-one] | 4.3 | 75 |  | 
O=C(NC1N=C(c2ccccc2F)c2ccccc2NC1=O)c1cc2cc(F)ccc2[nH]1 (racemic) [Example 114, 1,3-Dihydro-3-(RS)-(5-fluoroindole-2-carbonylamino)-5-(2-fluorophenyl)-2H-1,4-benzodiazepin-2-one] | 4.8 | 12 |  | 
O=C(NC1N=C(c2ccccc2)c2ccccc2NC1=O)c1c[nH]c2ccccc12 (racemic) [Example 109, 1,3-Dihydro-3-(RS)-(3-indolecarbonylamino)-5-phenyl-2H-1,4-benzodiazepin-2-one] | 18 | 8.4 |  | 
O=C(Cc1cccc2sccc12)NC1N=C(c2ccccc2F)c2ccccc2NC1=O (racemic) [Example 110, 1,3-Dihydro-3-(RS)-(4-thianaPhtheneacetyl)amino-5-(2-fluorophenyl)-2H-1,4-benzodiazepin-2-one] | 3.9 | 3.3 |  | 
CN1C(=O)C(NC(=O)c2ccc(Cl)cc2)[N+]([O-])=C(c2ccccc2F)c2ccccc21 (racemic) [Example 142, 3-(RS)-(p-Chlorobenzoylamino)-1,3-dihydro-5-(2'-fluorophenyl)-1-methyl-4-oxo-2H-1,4-benzodiazepin-2-one] | 2.4 | 18 |  | 
O=C(NC1N=C(c2ccccc2)c2ccccc2NC1=O)c1ccc(C(F)(F)F)cc1 (racemic) [Example 145, 1,3-Dihydro-5-Phenyl-3-(RS)-(4'-trifluoromethylbenzoylamino)-2H-1,4-benzodiazepin-2-one] | 36 | 65 |  | 
CN1C(=O)[C@H](NC(=O)C2CCCCC2)N=C(c2ccccc2)c2ccccc21 [Example 198, (R)-N-(2,3-Dihydro-1-methyl-2-oxo-5-phenyl-1H-1,4-benzodiazepin-3-yl)-cyclohexanecarboxamide] |  |  | 1.5 | 18
CN1C(=O)[C@H](NC(=O)[C@@H](N)Cc2ccccc2)N=C(c2ccccc2)c2ccccc21 [Example 84b, 3(R)-(2(S)-amino-3-phenylpropanoylamino)-1,3-dihydro-1-methyl-5-phenyl-2H-1,4-benzodiazepin-2-one] |  | > 100 | 55 | 

Source: patent US4820834A, “Benzodiazepine analogs” (priority 1987, dated 1989)
